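1) Cells in 96-well plates. 2) Compound, 48 h, 5 concentrations. 3) Linear interpolation between surrounding doses. 4) Unreached endpoint = highest concentration. GI50 is the concentration that inhibits growth by half.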 Activity calls are given as the source filed them. Rule as the data show it: active = GI50 up to about 1.1 µM and inactive = higher.
Tests used:
Experiment in all cases: inhibition of tumour cell growth, NCI panel, 48 h
UO-31 = test system: UO-31
SR = test system: SR
SK-MEL-5 = test system: SK-MEL-5
ACHN = test system: ACHN
CAKI-1 = test system: CAKI-1
NCI-H522 = test system: NCI-H522
K562 = test system: K562
MDA-MB-231 = test system: MDA-MB-231
T47D = test system: T47D
RPMI-8226 = test system: RPMI-8226
HCT-116 = test system: HCT-116
SF-295 = test system: SF-295
HCT-15 = test system: HCT-15
TK-10 = test system: TK-10
PC-3 = test system: PC-3
MDA-MB-435 = test system: MDA-MB-435
KM12 = test system: KM12
U-251 = test system: U-251
HOP-62 = test system: HOP-62

SMILES	GI50 (UO-31)	GI50 (SR)	GI50 (SK-MEL-5)	GI50 (ACHN)	GI50 (CAKI-1)	GI50 (NCI-H522)	GI50 (K562)	GI50 (MDA-MB-231)	GI50 (T47D)	GI50 (RPMI-8226)	GI50 (HCT-116)	GI50 (SF-295)	GI50 (HCT-15)	GI50 (TK-10)	GI50 (PC-3)	GI50 (MDA-MB-435)	GI50 (KM12)	GI50 (U-251)	GI50 (HOP-62)
CSc1ncc2c(n1)-c1ccccc1OC2N1CCCC1 (configuration not stated)	42.4 µM (inactive)	> 100 µM (inactive)	> 100 µM (inactive)	60.8 µM (inactive)	31 µM (inactive)	36.6 µM (inactive)	60.1 µM (inactive)	> 100 µM (inactive)	35.8 µM (inactive)	50.9 µM (inactive)	> 100 µM (inactive)	> 100 µM (inactive)	49.9 µM	44.1 µM (inactive)	57.3 µM (inactive)	> 100 µM (inactive)	> 100 µM (inactive)	68.5 µM (inactive)	–
Brc1ccccc1/C=C\C1(c2ccccc2)OCCO1	7.83 µM (inactive)	0.692 µM (active)	15.2 µM (inactive)	8.51 µM (inactive)	6.59 µM (inactive)	8.11 µM (inactive)	1.01 µM (active)	9.27 µM (inactive)	15.2 µM (inactive)	1.01 µM (active)	4.98 µM (inactive)	13.4 µM (inactive)	6.38 µM	16.6 µM (inactive)	17.9 µM (inactive)	11.7 µM (inactive)	2.34 µM (inactive)	6.24 µM (inactive)	14.5 µM (inactive)
CCCCCC(=O)n1[nH]c(=O)n(-c2ccc(OC)cc2)c1=O	> 100 µM (inactive)	> 100 µM (inactive)	> 100 µM (inactive)	> 100 µM (inactive)	> 100 µM (inactive)	57.5 µM (inactive)	> 100 µM (inactive)	> 100 µM (inactive)	> 100 µM (inactive)	> 100 µM (inactive)	> 100 µM (inactive)	> 100 µM (inactive)	> 100 µM	> 100 µM (inactive)	> 100 µM (inactive)	> 100 µM (inactive)	> 100 µM (inactive)	> 100 µM (inactive)	> 100 µM (inactive)
O=C(O)CSC1=NC(=O)C2(NN1)c1ccccc1-c1ccccc12	> 10 µM (inactive)	> 10 µM (inactive)	> 10 µM (inactive)	> 10 µM (inactive)	> 10 µM (inactive)	> 10 µM (inactive)	> 10 µM (inactive)	> 10 µM (inactive)	> 10 µM (inactive)	> 10 µM (inactive)	> 10 µM (inactive)	> 10 µM (inactive)	> 10 µM	> 10 µM (inactive)	> 10 µM (inactive)	> 10 µM (inactive)	> 10 µM (inactive)	–	> 10 µM (inactive)
CCCC(=O)NC(Nc1cc(C)ccn1)(C(=O)OCC)C(F)(F)F (configuration not stated)	> 100 µM (inactive)	> 100 µM (inactive)	> 100 µM (inactive)	> 100 µM (inactive)	> 100 µM (inactive)	> 100 µM (inactive)	> 100 µM (inactive)	> 100 µM (inactive)	> 100 µM (inactive)	> 100 µM (inactive)	> 100 µM (inactive)	> 100 µM (inactive)	> 100 µM	> 100 µM (inactive)	> 100 µM (inactive)	> 100 µM (inactive)	> 100 µM (inactive)	> 100 µM (inactive)	> 100 µM (inactive)
CC1=C2NCN(C)N=C2C(C#N)(C#N)C1(C#N)C#N	18.4 µM (inactive)	6.49 µM (inactive)	27.4 µM (inactive)	17.9 µM (inactive)	5.97 µM (inactive)	8.87 µM (inactive)	3.78 µM (inactive)	19.6 µM (inactive)	21.7 µM (inactive)	10.9 µM (inactive)	23.1 µM (inactive)	> 100 µM (inactive)	21 µM	16.4 µM (inactive)	26.9 µM (inactive)	21.7 µM (inactive)	> 65.9 µM (inactive)	28.9 µM (inactive)	> 55.2 µM (inactive)
c1ccc2c(c1)Sc1ccccc1N2CC1CN2CCC1CC2 (configuration not stated) [MEQUITAZINE]	7.06 µM (inactive)	2.58 µM (inactive)	3.2 µM (inactive)	10.3 µM (inactive)	8.26 µM (inactive)	4.82 µM (inactive)	2.11 µM (inactive)	3.8 µM (inactive)	2.63 µM (inactive)	2.99 µM (inactive)	3.52 µM (inactive)	15.7 µM (inactive)	7.18 µM	6.41 µM (inactive)	5.35 µM (inactive)	2.8 µM (inactive)	5.08 µM (inactive)	4.24 µM (inactive)	13.4 µM (inactive)
CC(C)CCOC(=O)NC(Nc1ccc(F)cc1)(C(F)(F)F)C(F)(F)F	10.7 µM (inactive)	0.679 µM (active)	12.6 µM (inactive)	1.66 µM (inactive)	19.5 µM (inactive)	25.8 µM (inactive)	0.695 µM (active)	7.91 µM (inactive)	6.22 µM (inactive)	22.1 µM (inactive)	65.9 µM (inactive)	> 100 µM (inactive)	1.68 µM	29.7 µM (inactive)	28.1 µM (inactive)	13.7 µM (inactive)	5.98 µM (inactive)	27.3 µM (inactive)	37.2 µM (inactive)
Cc1ccccc1C(=N)c1ccccc1Cc1cccc2ccccc12	38.5 µM (inactive)	15.9 µM (inactive)	17.9 µM (inactive)	30.4 µM (inactive)	31 µM (inactive)	13.1 µM (inactive)	18.2 µM (inactive)	36.4 µM (inactive)	14.1 µM (inactive)	7.43 µM (inactive)	11.9 µM (inactive)	19.2 µM (inactive)	18.7 µM	59.3 µM (inactive)	40.6 µM (inactive)	21.9 µM (inactive)	16.6 µM (inactive)	18.2 µM (inactive)	19 µM (inactive)
O=[N+]([O-])/C(Cl)=C(/C(Cl)=C(Cl)Cl)N1CCOCC1	6.1 µM (inactive)	2.21 µM (inactive)	1.65 µM (inactive)	6.01 µM (inactive)	4.34 µM (inactive)	2 µM (inactive)	3.18 µM (inactive)	3.86 µM (inactive)	2.94 µM (inactive)	2.56 µM (inactive)	2.44 µM (inactive)	11.5 µM (inactive)	1.56 µM	3.49 µM (inactive)	6.01 µM (inactive)	2.28 µM (inactive)	3.34 µM (inactive)	10.7 µM (inactive)	–
COC1(OC)N=C(N)C2(C#N)C(c3ccccc3)NC3=C(CCC3)C12C#N (configuration not stated)	> 100 µM (inactive)	> 100 µM (inactive)	> 100 µM (inactive)	> 100 µM (inactive)	> 100 µM (inactive)	> 100 µM (inactive)	–	> 100 µM (inactive)	> 100 µM (inactive)	> 100 µM (inactive)	> 100 µM (inactive)	> 100 µM (inactive)	> 100 µM	> 100 µM (inactive)	> 100 µM (inactive)	> 100 µM (inactive)	> 100 µM (inactive)	> 100 µM (inactive)	> 100 µM (inactive)
COC(=O)/C(C#N)=C(\Nc1ccccc1)N1CCCCC1	> 100 µM (inactive)	> 100 µM (inactive)	> 100 µM (inactive)	> 100 µM (inactive)	> 100 µM (inactive)	> 100 µM (inactive)	> 100 µM (inactive)	> 100 µM (inactive)	> 100 µM (inactive)	> 100 µM (inactive)	> 100 µM (inactive)	> 100 µM (inactive)	> 100 µM	> 100 µM (inactive)	> 100 µM (inactive)	> 100 µM (inactive)	–	> 100 µM (inactive)	> 100 µM (inactive)
C=C[C@H]1CN2CCc3c([nH]c4c([C@H]5CCCN5C)c(O)ccc34)[C@@H]2C[C@@H]1C[C@H]1c2[nH]c3ccccc3c2CCN1C [STRYCHNOPENTAMINE]	1.71 µM (inactive)	0.425 µM (active)	–	1.78 µM (inactive)	1.72 µM (inactive)	1.79 µM (inactive)	0.422 µM (active)	1.81 µM (inactive)	1.8 µM (inactive)	0.653 µM (active)	1.33 µM (inactive)	1.73 µM (inactive)	0.899 µM	1.83 µM (inactive)	1.57 µM (inactive)	1.43 µM (inactive)	1.36 µM (inactive)	1.43 µM (inactive)	1.55 µM (inactive)
Brc1c(C#CCC(c2ccccc2)(c2ccccc2)c2ccccc2)ccc(C#CCC(c2ccccc2)(c2ccccc2)c2ccccc2)c1Br	> 100 µM (inactive)	> 100 µM (inactive)	> 100 µM (inactive)	> 100 µM (inactive)	> 100 µM (inactive)	> 100 µM (inactive)	> 100 µM (inactive)	> 100 µM (inactive)	> 100 µM (inactive)	> 100 µM (inactive)	> 100 µM (inactive)	> 100 µM (inactive)	> 100 µM	> 100 µM (inactive)	> 100 µM (inactive)	> 100 µM (inactive)	> 100 µM (inactive)	> 100 µM (inactive)	–
O=c1[nH][nH]c(=O)c2c1ccc1oc3ccccc3c12	> 100 µM (inactive)	> 100 µM (inactive)	> 100 µM (inactive)	> 100 µM (inactive)	45.8 µM (inactive)	> 100 µM (inactive)	> 100 µM (inactive)	> 100 µM (inactive)	> 100 µM (inactive)	> 100 µM (inactive)	> 100 µM (inactive)	> 100 µM (inactive)	–	> 100 µM (inactive)	> 100 µM (inactive)	> 100 µM (inactive)	> 100 µM (inactive)	> 100 µM (inactive)	> 100 µM (inactive)
